The structures appear in SMILES notation.

A short description of the data set: PAMPA permeability assay. Format: in vitro ADME. The text has this: Parallel artificial membrane permeability (PAMPA) assay is a non-cell based assay designed to predict in vivo biological membrane permeability of drugs in early stage of drug discovery. The 96-well Corning Gentest Pre-coated PAMPA Plate System (catalog no. 353015) was used to perform the assay. The Corning Gentest Pre-coated PAMPA plate system was designed by 96-well insert system with a […] PVDF (polyvinylidene fluoride) filter plate which has been pre-coated with structured tri-layers of phospholipids (lipid/oil/lipid) and a matched receiver microplate.
Donor solutions of test compounds (300 μL, 20 μM in PBS/MeOH 90:10) were added to each well of the donor plate. 200 μL of PBS/MeOH 90:10 was added to each well of the acceptor plate. The acceptor plate was coupled with the donor plate and incubated for 5 hours at room temperature (RT) without agitation. In each plate, compounds were tested in triplicate. At the end of the incubation, drug concentration in the initial donor solution, acceptor and the donor wells were determined using LC/MS/MS. A five (5) points standard curve from 0.1 to 1000 nM for each test compound were prepared. Analyte samples were diluted to within standard curve concentration with ACN/H2O 50:50 prior analysis.
All samples were analyzed by electrospray ionization (ESI) liquid chromtograph/mass spectrometry (LC/MS) system utilizing Sciex 5500 quadropule ion trap (Qtrap) mass spectrometry with Shidmazu Nexera X2 UHPLC. The LC-MS/MS instrument monitored each of the test compound in the study based of their respective mass-to-charge (m/z) transitions and MS parameters. Chromatographic separation was achieved on Phenomenex Luna C18 column (50×2.0 mm, 3 μm particle size) by using a gradient elution: mobile phase A contains 0.1% formic acid in water and mobile phase B contains 0.1% formic acid in acetonitrile; A/B (99:1) from 0 to 1 minutes; to A/B (1:99) from 1 to 4 minutes; A/B (1:99) from 4 to 8 minutes; to A/B (99:1) from 8 to 8.20 minutes; A/B (99:1) from 8.2 to 9 minutes. The flow rate was 0.4 mL/min and the column temperature was maintained at 35° C. and autosampler temperature at 4° C. For detection, the electrospray ionization operated in the positive mode using multiple reaction monitoring (MRM).
Data acquisition, and peak integrations were obtained by Analyst® Version 1.7.1 (Sciex) operating with Windows® (Microsoft). The standard curve regressions and sample concentrations were generated and calculated by Analyst®. Concentrations in the sample solutions were determined based on the measured peak area ratios from the response of the analyte to the internal standard with reference to the standard calibration curve. All sample calculations were calculated using a linear regression with 1/x2 weighting (where x is the concentration of given calibration standard level).
Permeability of the test compounds was calculated using the following formula:
Where: • A=filter area=[…] • VA=acceptor well volume (0.2 mL) • VD=donor well volume […], • t=incubation time=5 hours=18000 seconds, • CA(t)=compound concentration in acceptor well at time t (nM), • CD(t)=compound concentration in donor well at time t (nM), and […]
For orientation: The PAMPA barrier holds no transporters, so it reflects passive diffusion.

`[2H]C([2H])([2H])C([2H])([2H])C(=O)NCCN1Cc2nc(NCc3c(F)cc(F)cc3F)ccc2C1=O` [Compound 204, N-(2-(5-oxo-2-((2,4,6-trifluorobenzyl)amino)-5,7-dihydro-6H-pyrrolo[3,4-b]pyridin-6-yl)ethyl)propenamide-d5] came in with a Papp at 5 h, 20 µM (20 μM donor in PBS/MeOH 90:10, 5 hours at room temperature) of 1.07 ×10⁻⁶ cm/s. For the setting “deuterated vs non-deuterated (Compounds 37 and 73, respectively)”, the “permeability compared to non-deuterated counterparts” value is on record as “improved permeability”.

By Papp is commonly meant the rate of passage across a membrane or cell layer, normalised by area and donor concentration. A lower Papp goes with poor permeation.

These data come from patent US20250066353A1, “VANIN-1 INHIBITORS” (ATHOS THERAPEUTICS, INC., priority 2023, published 2025).
